Source: US7759373B2, “Large conductance calcium-activated K channel opener” (Mitsubishi Tanabe Pharma Corporation, priority 2001, dated 2010)

Tested on: rhythmic bladder contractions induced by substance P
Test: Inhibitory effect on the rhythmic bladder contractions induced by substance P in anesthetized rats
Assay type: in vivo, rat
Conditions: time during which frequency of rhythmic contraction was completely inhibited, 0.25 mg/kg of the compound, substance P infusion
Procedure: Inhibitory effect on the rhythmic bladder contractions induced by substance P in anesthetized rats
For the experiments, Sprague-Dawley female rats (9 to 12 weeks old) weighing between 200 to 300 g were used. After urethane anesthetization (subcutaneously administered with a dose of 1.2 g/kg), cannulae were placed in both right and left femoral veins. One intravenous catheter was used for administration of compounds, and the other was for the substance P (0.33 μg/kg/min) infusion. We also cannulated into ureter to pass urine. Polyethylene catheters were inserted into carotid artery for continuous monitoring of arterial blood pressure and heart rate. For continuous infusion, transurethral bladder catheter was inserted into the bladder through the urethra and tied in place by a ligature around the urethral orifice. One end of the catheter was attached to a pressure transducer in order to measure intravesical pressure. The other end of the catheter was used for infusion of saline into the bladder. After stabilization of blood pressure and heart rate and after the bladder was emptied, cystometry was performed by filling the bladder slowly with about 0.6 ml of saline. After about 10 minutes, intravenous infusion of substance P (0.33 μg/kg/min) was started for stabilization of the micturition reflex. Compounds were administered after stable rhythmic bladder contraction was obtained over 15 minutes. All compounds were dissolved or suspended in saline containing 0.5% Tween 80 for intravenous administration (0.1 ml/kg).
A 100% inhibition time (minute) of the selected compounds of the present invention is shown in the following Table 65 with a rank of A, B or C. These ranges are as mentioned below. A≧20>B≧10>C (minute)

Compound	100% inhibition time range
CCc1nc(-c2ccc(F)cc2)[nH]c1-c1cccnc1C [Preparation example 48]	C (A≧20>B≧10>C (minute))
COc1ccc(-c2oc(-c3ccc(F)cc3)nc2CC(=O)O)cc1F [Preparation Example 250]	B (A≧20>B≧10>C (minute))
Cc1ccc2sc(-c3nc(CC(=O)O)c(-c4ccc(Cl)s4)o3)cc2c1 [Preparation Example 450]	B (A≧20>B≧10>C (minute))
O=C(O)Cc1sc(-c2cc3ccccc3s2)nc1-c1ccc(Cl)s1 [Preparation Example 569]	A (A≧20>B≧10>C (minute))
COc1ccc(-c2nc(CC(=O)O)c(-c3ccc(Cl)s3)o2)cc1 [Preparation Example 523]	B (A≧20>B≧10>C (minute))
CN(C)c1ccc(-c2nc(-c3ccc(Cl)c(F)c3)c(CC(=O)O)s2)cn1 [Preparation Example 585]	C (A≧20>B≧10>C (minute))
O=C(Cc1nc(-c2ccc(F)cc2)oc1-c1ccsc1)Nc1cccnc1 [Preparation Example 376]	C (A≧20>B≧10>C (minute))
COc1ccc(-c2nc(CC(=O)O)c(-c3ccsc3)o2)cn1 [Preparation Example 369]	B (A≧20>B≧10>C (minute))
CCc1[nH]c(-c2sccc2CO)nc1-c1cccnc1.Cl.Cl [Preparation example 67, 5-ethyl-2-(3-hydroxymethylthiphen-2-yl)-4-(3-pyridyl)imidazole dihydrochloride]	B (A≧20>B≧10>C (minute))
O=C(O)Cc1nc(-c2ccc(F)cc2)oc1-c1cccc(Cl)c1 [Preparation Example 241]	C (A≧20>B≧10>C (minute))
CN(C)c1ccc(-c2nc(CC(=O)O)c(-c3ccc(Cl)s3)o2)cn1 [Preparation Example 260]	A (A≧20>B≧10>C (minute))
COCc1nc(-c2cccc(F)c2)[nH]c1-c1ccccc1 [Preparation example 123]	C (A≧20>B≧10>C (minute))
O=C(O)Cc1sc(-c2cc3ccccc3s2)nc1-c1ccc(Cl)c(F)c1 [Preparation Example 583]	B (A≧20>B≧10>C (minute))
O=C(O)Cc1nc(-c2cc3ccccc3[nH]2)oc1-c1ccc(Cl)s1 [Preparation Example 466]	B (A≧20>B≧10>C (minute))
COCc1nc(-c2ccc(C#N)cc2)[nH]c1-c1ccccc1 [Preparation example 124]	B (A≧20>B≧10>C (minute))
CCc1nc(-c2ccc(F)cc2)oc1-c1cccnc1 [Preparation Example 532]	C (A≧20>B≧10>C (minute))
O=C(O)Cc1nc(-c2ccc(F)cc2)oc1-c1ccc(F)c(F)c1 [Preparation Example 166]	B (A≧20>B≧10>C (minute))
CS(=O)(=O)Nc1nc(-c2ccc(F)cc2)oc1-c1ccsc1.[Na] [Preparation Example 380, N-[2-(4-fluorophenyl)-5-(3-thienyl)oxazol-4-yl]methanesulfonamide sodium salt]	C (A≧20>B≧10>C (minute))
CCc1[nH]c(-c2cc(Cl)sc2S(N)(=O)=O)nc1-c1cccnc1.Cl.Cl [Preparation example 144, 2-(5-Chloro-2-sulfamoylthiophen-3-yl)-5-ethyl-4-(3-pyridyl) imidazole dihydrochloride]	C (A≧20>B≧10>C (minute))
O=C(O)Cc1sc(-c2ccc(F)cc2)nc1-c1ccc(Cl)s1 [Preparation Example 568]	A (A≧20>B≧10>C (minute))
COc1ccc(-c2nc(CC(=O)O)c(-c3ccc(Cl)s3)o2)cc1O [Preparation Example 290]	B (A≧20>B≧10>C (minute))
O=C(Cc1nc(-c2ccc(F)cc2)oc1-c1ccsc1)NCc1ccccn1 [Preparation Example 375]	C (A≧20>B≧10>C (minute))
CCc1[nH]c(-c2ccc(F)cc2)nc1-c1cccnc1.Cl.Cl [Preparation example 80, 5-ethyl-2-(4-fluorophenyl)-4-(3-pyridyl)imidazole dihydrochloride]	B (A≧20>B≧10>C (minute))
COc1cc(-c2nc(CC(=O)O)c(-c3ccc(Cl)s3)o2)ccc1O [Preparation Example 289]	B (A≧20>B≧10>C (minute))
CCN(CC)c1ccc(-c2nc(CC(=O)O)c(-c3ccsc3)o2)cn1 [Preparation Example 530]	C (A≧20>B≧10>C (minute))
O=C(O)Cc1nc(-c2ccc(F)cc2)oc1-c1ccco1 [Preparation Example 270]	B (A≧20>B≧10>C (minute))
CC(C)c1ncc(-c2nc(CC(=O)O)c(-c3ccsc3)o2)cn1 [Preparation Example 476]	B (A≧20>B≧10>C (minute))

Compound	100% inhibition time range
CCOc1c(F)cc(-c2oc(-c3ccc(F)cc3)nc2CC(=O)O)cc1OC [Preparation Example 251]	C (A≧20>B≧10>C (minute))
2-(4-fluorophenyl)-5-(2-thienyl)oxazole-4-yl propionic acid sodium salt [Preparation Example 338]	C (A≧20>B≧10>C (minute))
O=C(Cc1nc(-c2ccc(F)cc2)oc1-c1ccsc1)NS(=O)(=O)c1cccnc1 [Preparation Example 371]	C (A≧20>B≧10>C (minute))
CN(C)c1ccc(-c2nc(-c3ccc(Cl)s3)c(CC(=O)O)s2)cn1 [Preparation Example 571]	A (A≧20>B≧10>C (minute))
O=C(O)Cc1nc(-c2cc3ccccc3s2)oc1-c1ccc(Cl)c(F)c1 [Preparation Example 447]	B (A≧20>B≧10>C (minute))
O=C(O)Cc1nc(-c2ccc(C(F)(F)F)cc2)oc1-c1cccs1 [Preparation Example 430]	B (A≧20>B≧10>C (minute))
COc1ccc(-c2nc(CC(=O)O)c(-c3ccc(Cl)cc3)o2)cc1 [Preparation Example 475]	B (A≧20>B≧10>C (minute))
O=C(O)Cc1nc(-c2ccc(N3CCSC3)nc2)oc1-c1ccsc1 [Preparation Example 529]	B (A≧20>B≧10>C (minute))
Cc1cc(-c2oc(-c3ccc(F)cc3)nc2CC(=O)O)sc1CO [Preparation Example 233]	C (A≧20>B≧10>C (minute))
O=C(O)Cc1nc(-c2ccc3c(c2)CCCS3)oc1-c1ccc(Cl)s1 [Preparation Example 456]	C (A≧20>B≧10>C (minute))
CC(O)c1ccc(-c2oc(-c3ccc(F)cc3)nc2CC(=O)O)s1 (stereo not drawn) [Preparation Example 234]	C (A≧20>B≧10>C (minute))
CNc1[nH]c(-c2ccc(F)cc2)nc1-c1ccccc1 [Preparation example 107, 5-methylamino-2-(4-fluorophenyl)-4-phenylimidazole]	B (A≧20>B≧10>C (minute))
CCCc1nc(-c2ccc(C#N)cc2)[nH]c1-c1ccccc1 [Preparation example 31]	A (A≧20>B≧10>C (minute))
COCc1nc(-c2ccc(F)cc2)[nH]c1-c1ccsc1 [Preparation example 122]	B (A≧20>B≧10>C (minute))
CSCc1ccc(-c2nc(CC(=O)O)c(-c3ccc(Cl)s3)o2)cc1 [Preparation Example 448]	C (A≧20>B≧10>C (minute))
O=C(O)Cc1nc(-c2ccc(F)cc2)oc1-c1ccc2ncccc2c1 [Preparation Example 239]	C (A≧20>B≧10>C (minute))
CC(C)COc1cc(-c2oc(-c3ccc(F)cc3)nc2CC(=O)O)ccc1O [Preparation Example 292]	C (A≧20>B≧10>C (minute))
Cc1csc(-c2oc(-c3ccc(F)cc3)nc2CC(=O)O)c1 [Preparation Example 164]	B (A≧20>B≧10>C (minute))
Cc1ccccc1-c1nc(CC(=O)O)c(-c2cccs2)o1 [Preparation Example 433]	C (A≧20>B≧10>C (minute))
CN(C)c1cnc(-c2nc(CC(=O)O)c(-c3ccc(Cl)s3)o2)cn1 [Preparation Example 628]	C (A≧20>B≧10>C (minute))
CCc1nc(-c2ccc(F)cc2)[nH]c1-c1cncnc1 [Preparation example 85]	C (A≧20>B≧10>C (minute))
Cc1ccc(-c2nc(CC(=O)O)c(-c3cccs3)o2)cc1 [Preparation Example 156]	B (A≧20>B≧10>C (minute))
CCCc1nc(-c2ccc(F)cc2)[nH]c1-c1cccnc1 [Preparation example 93]	B (A≧20>B≧10>C (minute))
O=C(O)Cc1nc(-c2ccc3ccccc3n2)oc1-c1ccsc1 [Preparation Example 439]	C (A≧20>B≧10>C (minute))
O=C(O)Cc1nc(-c2ccc(F)cc2)oc1-c1cccc(O)c1 [Preparation Example 258]	C (A≧20>B≧10>C (minute))
OCc1[nH]c(-c2csc(Cl)c2)nc1-c1cccnc1 [Preparation Example 482, 2-(5-chloro-thiophen-3-yl)-5-hydroxymethyl-4-(3-pyridyl)imidazole]	C (A≧20>B≧10>C (minute))
N#Cc1cccc(-c2oc(-c3ccc(F)cc3)nc2CC(=O)O)c1 [Preparation Example 522]	B (A≧20>B≧10>C (minute))
